Source: patent US11000033B2, “Ketone or oxime compound, and herbicide” (NISSAN CHEMICAL CORPORATION, priority 2014, dated 2021)

Experiments:
Format in all cases: in vivo
[1] = system: Echinochloa oryzacola Vasing.; assay: Test Example 1: herbicidal activity, application before weed generation in submerged conditions (symbol A); details: application herbicide amount 320 g/ha
Procedure, shortened: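 Weeds are sown into submerged alluvial soil alongside transplanted 2.5-leaf rice, and the compound, as an emulsion diluted to a set rate, is applied onto the water before emergence. Rating on the 0–5 herbicidal-ratio scale follows 3 weeks of greenhouse growth at 25–30 °C.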

[2] = system: Echinochloa oryzacola Vasing.; assay: Test Example 2: herbicidal activity, application during weed generation in submerged conditions (symbol A); details: Table 23; application herbicide amount 320 g/ha; grade 0-5 by criteria of Test Example 1
Procedure, shortened: (§1)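 Treatment timing was the one- to two-leaf stage, with diluted emulsifiable compound dropped onto the paddy water (depth 4 cm) over alluvial soil. All three species grew from a mixed sowing in a 25° C. to 30° C. greenhouse. Injury was judged by eye 3 weeks on.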

Monochoria vaginalis = assay: Test Example 2: herbicidal activity, application during weed generation in submerged conditions (symbol C); details: Table 23; application herbicide amount 320 g/ha; grade 0-5 by criteria of Test Example 1
Procedure, shortened: as §1

Cyperus difformis = assay: Test Example 3: herbicidal effect by foliage application, Wagner pot (symbol E); details: application herbicide amount 320 g/ha
Procedure, shortened: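 The compound, formulated as an emulsion and diluted with water to a predetermined rate, is applied uniformly to leaves of two-week-old seedlings growing in submerged alluvial soil at 25–30 °C. Rice is included. Each plant is assessed 3 weeks later using defined criteria.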

[3] = system: Echinochloa crus-galli var. crus-galli; assay: Test Example 4: herbicidal effect by soil treatment (symbol H); details: application herbicide amount 320 g/ha
Procedure, shortened: (§2)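 Seeds were sown in sterilized diluvial soil, covered with about 1.5 cm of soil, and the soil surface was sprayed with a water-diluted emulsion of the compound at a predetermined rate. Plants grew in a greenhouse at 25° C. to 30° C.; effects were scored visually 3 weeks after application.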

Alopecurus myosuroides [4] = assay: Test Example 4: herbicidal effect by soil treatment (symbol J); details: application herbicide amount 320 g/ha
Procedure, shortened: as §2

soybean = assay: Test Example 4: effect on crop by soil treatment (symbol d); details: application herbicide amount 320 g/ha
Procedure, shortened: (§3)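 Seeds were sown in spots on sterilized diluvial soil in a plastic box and covered with about 1.5 cm of soil. Plants were then grown in a greenhouse at 25° C. to 30° C.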

wheat [5] = assay: Test Example 4: effect on crop by soil treatment (symbol e); details: application herbicide amount 320 g/ha
Procedure, shortened: as §3

beet = assay: Test Example 4: effect on crop by soil treatment (symbol f); details: application herbicide amount 320 g/ha
Procedure, shortened: as §3

Alopecurus myosuroides [6] = assay: Test Example 5: herbicidal effect by foliage application, plastic box (symbol J); details: 320 g/ha, 3 weeks after application
Procedure, shortened: (§4)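 After sowing into sterilized diluvial soil and growing two weeks under glass at 25° C. to 30° C., seedlings receive a uniform foliar spray of diluted emulsion. Damage is judged visually three weeks on.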

Amaranthus retroflexus = assay: Test Example 5: herbicidal effect by foliage application, plastic box (symbol N); details: 320 g/ha, 3 weeks after application
Procedure, shortened: as §4

wheat [7] = assay: Test Example 5: effect on crop by foliage application, plastic box (symbol e); details: 320 g/ha, 3 weeks after application
Procedure, shortened: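 Plants were raised from seed in a greenhouse (25° C. to 30° C.) after sowing in a plastic box of sterilized diluvial soil.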

Structure (SMILES) | Herbicidal effect grade, A: Echinochloa oryzacola Vasing. [1] | Herbicidal effect grade, A: Echinochloa oryzacola Vasing. [2] | Herbicidal effect grade, C: Monochoria vaginalis (Monochoria vaginalis) | herbicidal effect on E, grade 0-5 (Cyperus difformis) | Herbicidal effect grade, H: Echinochloa crus-galli var. crus-galli [3] | Herbicidal effect grade, J: Alopecurus myosuroides (Alopecurus myosuroides [4]) | Effect on crop grade, d: soybean (soybean) | Effect on crop grade, e: wheat (wheat [5]) | Effect on crop grade, f: beet (beet) | J: Alopecurus myosuroides, herbicidal effect (criteria of Test Example 1) (Alopecurus myosuroides [6]) | N: Amaranthus retroflexus, herbicidal effect (criteria of Test Example 1) (Amaranthus retroflexus) | e: wheat, effect on crop (criteria of Test Example 1) (wheat [7])
CON=C(C)CC1CC(O)=C(c2c(C)cccc2C)C1=O (stereo not drawn) [6-112] | 5 (Herbicidal ratio of 90% or more (almost completely withered)) | 3 (Herbicidal ratio of 40% or higher and lower than 70%) | 0 (Herbicidal ratio of 5% or lower (almost no effect)) | 4 (Herbicidal ratio of 70% or higher and lower than 90%) | 5 (Herbicidal ratio of 90% or more (almost completely withered)) | 5 (Herbicidal ratio of 90% or more (almost completely withered)) | 0 (Herbicidal ratio of 5% or lower (almost no effect)) | 3 (Herbicidal ratio of 40% or higher and lower than 70%) | 0 (Herbicidal ratio of 5% or lower (almost no effect)) | 5 (Herbicidal ratio of 90% or more (almost completely withered)) | 1 (Herbicidal ratio of 5% or higher and lower than 20%) | 4 (Herbicidal ratio of 70% or higher and lower than 90%)
CON=C(C)C(C)C1CC(O)=C(c2c(C)cc(Br)cc2OC)C1=O (stereo not drawn) [6-113] | 4 (Herbicidal ratio of 70% or higher and lower than 90%) | 5 (Herbicidal ratio of 90% or more (almost completely withered)) | 3 (Herbicidal ratio of 40% or higher and lower than 70%) | 5 (Herbicidal ratio of 90% or more (almost completely withered)) | 5 (Herbicidal ratio of 90% or more (almost completely withered)) | 5 (Herbicidal ratio of 90% or more (almost completely withered)) | 0 (Herbicidal ratio of 5% or lower (almost no effect)) | 0 (Herbicidal ratio of 5% or lower (almost no effect)) | 0 (Herbicidal ratio of 5% or lower (almost no effect)) | 5 (Herbicidal ratio of 90% or more (almost completely withered)) | 0 (Herbicidal ratio of 5% or lower (almost no effect)) | 5 (Herbicidal ratio of 90% or more (almost completely withered))
CCc1cc(Br)cc(C)c1C1=C(O)CC(C(C(C)=O)C(=O)OC)C1=O (stereo not drawn) [7-001] | 0 (Herbicidal ratio of 5% or lower (almost no effect)) | 0 (Herbicidal ratio of 5% or lower (almost no effect)) | 0 (Herbicidal ratio of 5% or lower (almost no effect)) | 0 (Herbicidal ratio of 5% or lower (almost no effect)) | 4 (Herbicidal ratio of 70% or higher and lower than 90%) | 0 (Herbicidal ratio of 5% or lower (almost no effect)) | 0 (Herbicidal ratio of 5% or lower (almost no effect)) | 0 (Herbicidal ratio of 5% or lower (almost no effect)) | 0 (Herbicidal ratio of 5% or lower (almost no effect)) | 3 (Herbicidal ratio of 40% or higher and lower than 70%) | 0 (Herbicidal ratio of 5% or lower (almost no effect)) | 0 (Herbicidal ratio of 5% or lower (almost no effect))
CC(=O)CC1CC(O)=C(c2c(C)cc(Br)cc2C)C1=O (stereo not drawn) [7-002] | 0 (Herbicidal ratio of 5% or lower (almost no effect)) | 0 (Herbicidal ratio of 5% or lower (almost no effect)) | 0 (Herbicidal ratio of 5% or lower (almost no effect)) | 3 (Herbicidal ratio of 40% or higher and lower than 70%) | 5 (Herbicidal ratio of 90% or more (almost completely withered)) | 3 (Herbicidal ratio of 40% or higher and lower than 70%) | 0 (Herbicidal ratio of 5% or lower (almost no effect)) | 0 (Herbicidal ratio of 5% or lower (almost no effect)) | 0 (Herbicidal ratio of 5% or lower (almost no effect)) | 4 (Herbicidal ratio of 70% or higher and lower than 90%) | 0 (Herbicidal ratio of 5% or lower (almost no effect)) | 0 (Herbicidal ratio of 5% or lower (almost no effect))
CCc1cc(Br)cc(C)c1C1=C(O)CC(CC(C)=O)C1=O (stereo not drawn) [7-003] | 5 (Herbicidal ratio of 90% or more (almost completely withered)) | 2 (Herbicidal ratio of 20% or higher and lower than 40%) | 0 (Herbicidal ratio of 5% or lower (almost no effect)) | 0 (Herbicidal ratio of 5% or lower (almost no effect)) | 5 (Herbicidal ratio of 90% or more (almost completely withered)) | 5 (Herbicidal ratio of 90% or more (almost completely withered)) | 0 (Herbicidal ratio of 5% or lower (almost no effect)) | 0 (Herbicidal ratio of 5% or lower (almost no effect)) | 0 (Herbicidal ratio of 5% or lower (almost no effect)) | 5 (Herbicidal ratio of 90% or more (almost completely withered)) | 0 (Herbicidal ratio of 5% or lower (almost no effect)) | 0 (Herbicidal ratio of 5% or lower (almost no effect))
CC(=O)CC1CC(O)=C(c2c(C)cc(-c3ccccc3)cc2C)C1=O (stereo not drawn) [7-004] | 5 (Herbicidal ratio of 90% or more (almost completely withered)) | 4 (Herbicidal ratio of 70% or higher and lower than 90%) | 0 (Herbicidal ratio of 5% or lower (almost no effect)) | 5 (Herbicidal ratio of 90% or more (almost completely withered)) | 5 (Herbicidal ratio of 90% or more (almost completely withered)) | 5 (Herbicidal ratio of 90% or more (almost completely withered)) | 0 (Herbicidal ratio of 5% or lower (almost no effect)) | 0 (Herbicidal ratio of 5% or lower (almost no effect)) | 0 (Herbicidal ratio of 5% or lower (almost no effect)) | 5 (Herbicidal ratio of 90% or more (almost completely withered)) | 0 (Herbicidal ratio of 5% or lower (almost no effect)) | 0 (Herbicidal ratio of 5% or lower (almost no effect))
CC(=O)CC1CC(O)=C(c2c(C)cc(-c3ccc(C(F)(F)F)cc3)cc2C)C1=O (stereo not drawn) [7-005] | 3 (Herbicidal ratio of 40% or higher and lower than 70%) | 1 (Herbicidal ratio of 5% or higher and lower than 20%) | 0 (Herbicidal ratio of 5% or lower (almost no effect)) | 0 (Herbicidal ratio of 5% or lower (almost no effect)) | 0 (Herbicidal ratio of 5% or lower (almost no effect)) | 0 (Herbicidal ratio of 5% or lower (almost no effect)) | 0 (Herbicidal ratio of 5% or lower (almost no effect)) | 0 (Herbicidal ratio of 5% or lower (almost no effect)) | 0 (Herbicidal ratio of 5% or lower (almost no effect)) | 2 (Herbicidal ratio of 20% or higher and lower than 40%) | 0 (Herbicidal ratio of 5% or lower (almost no effect)) | 0 (Herbicidal ratio of 5% or lower (almost no effect))
